Measurements as given in ChEMBL document CHEMBL1201862, “PubChem BioAssay data set” (2004).
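Test compounds were applied to cells in 96-well plates for 48 hours at 5 doses. GI50 is the concentration that inhibits growth by half.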 Calls of active or inactive are those of the source. Rule as the data show it: active = GI50 up to about 1.1 µM and inactive = higher.

Key:
Assay in all cases: growth of human tumour cells (NCI), 48 h
786-0 = tested on: 786-0
A498 = tested on: A498
A549 = tested on: A549
CAKI-1 = tested on: CAKI-1
DU-145 = tested on: DU-145
EKVX = tested on: EKVX
HCT-15 = tested on: HCT-15
HOP-62 = tested on: HOP-62
IGROV-1 = tested on: IGROV-1
Malme-3M = tested on: Malme-3M
NCI-H226 = tested on: NCI-H226
NCI-H23 = tested on: NCI-H23
NCI-H522 = tested on: NCI-H522
OVCAR-3 = tested on: OVCAR-3
RPMI-8226 = tested on: RPMI-8226
SK-MEL-2 = tested on: SK-MEL-2
SK-MEL-5 = tested on: SK-MEL-5
SNB-19 = tested on: SNB-19
SNB-75 = tested on: SNB-75
UO-31 = tested on: UO-31

In the case of `O=c1[nH]c2ccsc2c(=O)n1COCc1ccccc1`, the GI50 (786-0) is reported as > 100 µM (inactive), the GI50 (A498) is reported as > 100 µM (inactive) and the GI50 (A549) is reported as > 100 µM (inactive). The GI50 (CAKI-1) was > 100 µM (inactive), the GI50 (DU-145) was > 100 µM (inactive) and the GI50 (EKVX) was > 100 µM (inactive). The GI50 (HCT-15) was greater than 100 µM, the GI50 (HOP-62) was > 100 µM (inactive) and the GI50 (IGROV-1) was > 100 µM (inactive). For the same compound, the GI50 (Malme-3M) was > 100 µM (inactive), the GI50 (NCI-H226) was > 100 µM (inactive) and the GI50 (NCI-H23) was > 100 µM (inactive). For the same compound, the GI50 (NCI-H522) was > 100 µM (inactive), the GI50 (OVCAR-3) was > 100 µM (inactive) and the GI50 (RPMI-8226) was > 100 µM (inactive). The GI50 (SK-MEL-2) was > 100 µM (inactive), the GI50 (SK-MEL-5) was > 100 µM (inactive) and the GI50 (SNB-19) was > 100 µM (inactive). For the same compound, the GI50 (SNB-75) was > 100 µM (inactive) and the GI50 (UO-31) was > 100 µM (inactive).

For `CCOC(=O)/C(=C\c1ccnc2ccccc12)P(=O)(OCC)OCC`, the GI50 (786-0) was 1.94 µM (inactive), the GI50 (A498) was 1.77 µM (inactive) and the GI50 (A549) was 5.31 µM (inactive). For the same compound, the GI50 (CAKI-1) was 2.25 µM (inactive), the GI50 (DU-145) was 2.71 µM (inactive) and the GI50 (EKVX) was 4.65 µM (inactive). The GI50 (HCT-15) was 1.47 µM, the GI50 (HOP-62) was 1.93 µM (inactive) and the GI50 (IGROV-1) was 1.6 µM (inactive). For the same compound, the GI50 (Malme-3M) was 1.33 µM (inactive), the GI50 (NCI-H226) was 10.5 µM (inactive) and the GI50 (NCI-H23) was 1.9 µM (inactive). For the same compound, the GI50 (NCI-H522) was 1.33 µM (inactive), the GI50 (OVCAR-3) was 1.64 µM (inactive) and the GI50 (RPMI-8226) was 2.67 µM (inactive). For the same compound, the GI50 (SK-MEL-2) was 2.06 µM (inactive), the GI50 (SK-MEL-5) was 2.84 µM (inactive) and the GI50 (SNB-19) was 3.65 µM (inactive). For the same compound, the GI50 (SNB-75) was 3.49 µM (inactive).

`O=C(NCCCCCCNCc1cccc2ccccc12)Nc1cccc2ccccc12` was tested, and the GI50 (786-0) was > 100 µM (inactive), the GI50 (A498) was > 100 µM (inactive) and the GI50 (A549) was > 100 µM (inactive). For the same compound, the GI50 (CAKI-1) was > 100 µM (inactive), the GI50 (DU-145) was > 100 µM (inactive) and the GI50 (EKVX) was > 100 µM (inactive). The GI50 (HCT-15) was greater than 100 µM, the GI50 (HOP-62) was > 100 µM (inactive) and the GI50 (IGROV-1) was > 100 µM (inactive). The GI50 (Malme-3M) was > 100 µM (inactive), the GI50 (NCI-H23) was > 100 µM (inactive) and the GI50 (NCI-H522) was > 100 µM (inactive). For the same compound, the GI50 (OVCAR-3) was > 100 µM (inactive), the GI50 (RPMI-8226) was > 100 µM (inactive) and the GI50 (SK-MEL-2) was > 100 µM (inactive). The GI50 (SK-MEL-5) was > 100 µM (inactive), the GI50 (SNB-19) was > 100 µM (inactive) and the GI50 (SNB-75) was > 100 µM (inactive). For the same compound, the GI50 (UO-31) was 51.6 µM (inactive).

For `C/C(=C\COc1ccc2ccc(=O)oc2c1)CCC(=O)C(C)(C)O`, the GI50 (786-0) was 18.3 µM (inactive), the GI50 (A498) was 24 µM (inactive) and the GI50 (A549) was 26.7 µM (inactive). The GI50 (CAKI-1) was 29.2 µM (inactive), the GI50 (DU-145) was 32.1 µM (inactive) and the GI50 (EKVX) was 34 µM (inactive). The GI50 (HCT-15) was 17.1 µM, the GI50 (HOP-62) was 44 µM (inactive) and the GI50 (IGROV-1) was 35.1 µM (inactive). For the same compound, the GI50 (Malme-3M) was 44.9 µM (inactive), the GI50 (NCI-H226) was 26.5 µM (inactive) and the GI50 (NCI-H23) was 33 µM (inactive). For the same compound, the GI50 (NCI-H522) was 19.4 µM (inactive), the GI50 (OVCAR-3) was 17.9 µM (inactive) and the GI50 (RPMI-8226) was 17 µM (inactive). The GI50 (SK-MEL-2) was 39.1 µM (inactive), the GI50 (SK-MEL-5) was 16.5 µM (inactive) and the GI50 (SNB-19) was 32.7 µM (inactive). The GI50 (SNB-75) was 68.1 µM (inactive) and the GI50 (UO-31) was 28.4 µM (inactive).

In the case of `CS(=O)(=O)N1CC(CCl)c2ccc(O)cc21` (configuration not stated), the GI50 (786-0) is reported as 3.31 µM (inactive), the GI50 (A498) is reported as 1.83 µM (inactive) and the GI50 (A549) is reported as 3.19 µM (inactive). For the same compound, the GI50 (CAKI-1) was 2.42 µM (inactive), the GI50 (DU-145) was 3.46 µM (inactive) and the GI50 (EKVX) was 5.31 µM (inactive). For the same compound, the GI50 (HCT-15) was 3.15 µM, the GI50 (HOP-62) was 3.56 µM (inactive) and the GI50 (IGROV-1) was 2.07 µM (inactive). For the same compound, the GI50 (Malme-3M) was 2.19 µM (inactive), the GI50 (NCI-H226) was 2.34 µM (inactive) and the GI50 (NCI-H23) was 2.02 µM (inactive). The GI50 (NCI-H522) was 1.47 µM (inactive), the GI50 (OVCAR-3) was 2.95 µM (inactive) and the GI50 (RPMI-8226) was 2.03 µM (inactive). For the same compound, the GI50 (SK-MEL-2) was 2.94 µM (inactive), the GI50 (SK-MEL-5) was 1.55 µM (inactive) and the GI50 (SNB-75) was 2.71 µM (inactive). The GI50 (UO-31) was 2.32 µM (inactive).
